Results on 16 compounds are retold here after ChEMBL document CHEMBL3580638, “Targeting HER-2 over expressed breast cancer cells with 2-cyclohexyl-N-[(Z)-(substituted phenyl/furan-2-yl/thiophene-2-yl)methylidene]hydrazinecarbothioamide” (Bioorg Med Chem Lett, 2014).

In experiment [1] the test system is MDA-MB-231. Put plainly: Cytotoxicity against human MDA-MB-231 cells assessed as cell growth inhibition after 48 hrs by WST-1 assay. Format: functional, cell-based. The following applies: MDA-MB-231, 48 h.
Experiment [2] has as its system MDA-MB-468. Description: Cytotoxicity against human MDA-MB-468 cells assessed as cell growth inhibition after 48 hrs by WST-1 assay. In kind it is functional, cell-based. Particulars: MDA-MB-468, 48 h.
A short description of experiment [3]: Cytotoxicity against human SKBR3 cells overexpressing HER2 assessed as cell growth inhibition after 48 hrs by WST-1 assay. The following applies: SK-BR-3, 48 h. Format: functional, cell-based.
Experiment [4] deals with MCF7. Put plainly: Cytotoxicity against human MCF7 cells assessed as cell growth inhibition after 48 hrs by WST-1 assay. Format: functional, cell-based. The following applies: MCF7, 48 h.
The test system of experiment [5] is MDA-MB-468. Put plainly: Cytotoxicity against human MDA-MB-468 cells assessed as cell growth inhibition at 300 uM after 48 hrs by WST-1 assay. Format: functional, cell-based.
In experiment [6] the test system is MCF7. Description: Cytotoxicity against human MCF7 cells assessed as cell growth inhibition at 300 uM after 48 hrs by WST-1 assay. In kind it is functional, cell-based.
The test system of experiment [7] is SK-BR-3. Description: Decrease in ALDH activity in human SKBR3 cells overexpressing HER2 assessed as reduction in ALDH-positive population at 30 uM after 72 hrs by Aldefluor assay. In kind it is functional.
Experiment [8] is described as follows: Decrease in HER2 expression in human SKBR3 cells overexpressing HER2 by immunohistochemistry staining. Particulars: SK-BR-3. In kind it is functional, cell-based.
In experiment [9] the test system is MDA-MB-231. Description: Cytotoxicity against human MDA-MB-231 cells assessed as cell growth inhibition at 300 uM after 48 hrs by WST-1 assay. In kind it is functional, cell-based.
Experiment [10] relates to SK-BR-3. Put plainly: Decrease in ALDH activity in human SKBR3 cells overexpressing HER2 assessed as ALDH-positive population by flow cytometry in presence of ALDH inhibitor DEAB (reference value: 0.7%). Format: functional. Details: scale not given: the % may be the effect or the level left.
Experiment [11] has as its system SK-BR-3. Description: Decrease in ALDH activity in human SKBR3 cells overexpressing HER2 assessed as ALDH-positive population by flow cytometry in absence of ALDH inhibitor DEAB (reference value: 20%). In kind it is functional. Details: scale not given: the % may be the effect or the level left.
The test system of experiment [12] is SK-BR-3. Put plainly: Inhibition of cell migration in human SKBR3 cells overexpressing HER2 at 25 uM after 8 hrs by microtiter plate reader analysis. In kind it is functional. The following applies: SK-BR-3, 8 h.
The test system of experiment [13] is MDA-MB-231. Put plainly: Inhibition of cell migration in human MDA-MB-231 cells at 25 uM after 8 hrs by microtiter plate reader analysis. Format: functional. The following applies: MDA-MB-231, 8 h.
Experiment [14] has as its system MCF7. Put plainly: Inhibition of cell migration in human MCF7 cells at 25 uM after 8 hrs by microtiter plate reader analysis. Format: functional. The following applies: MCF7, 8 h.
In experiment [15] the test system is SK-BR-3. Description: Inhibition of cell adhesion in human SKBR3 cells overexpressing HER2 at 25 uM after 30 to 90 mins by microtiter plate reader analysis. In kind it is functional.
Experiment [16] concerns MDA-MB-231. Description: Inhibition of cell adhesion in human MDA-MB-231 cells at 25 uM after 30 to 90 mins by microtiter plate reader analysis. Format: functional.
Experiment [17] relates to MCF7. Description: Inhibition of cell adhesion in human MCF7 cells at 25 uM after 30 to 90 mins by microtiter plate reader analysis. In kind it is functional.

The source made the active and inactive calls. No cut-off for these calls is given here.

For `CN(C)c1ccc(/C=N\NC(=S)NC2CCCCC2)cc1`, the IC50 was found to be 125 µM in experiment [1], 280 µM in [2], 31.2 µM in [3] and 51.1 µM in [4].
Regarding `O=[N+]([O-])c1ccccc1/C=N\NC(=S)NC1CCCCC1`, the results for the IC50 in experiment [1] and in experiment [3] were 118 µM and 46.5 µM, respectively. Moreover, the inhibition result in experiment [5] and in [6] was “inactive” each time.
`Oc1cccc(/C=N\NC(=S)NC2CCCCC2)c1`: the values for the IC50 in experiment [1], in experiment [2] and in experiment [3] were 24.5 µM, 32.2 µM and 25.6 µM, respectively. In addition, the inhibition result in experiment [6] is “inactive”. Moreover, the inhibition entry in experiment [7] and in [8] was “Active” throughout.
Take `S=C(N/N=C\c1ccco1)NC1CCCCC1`: the figures for the IC50 in [1] and in experiment [3] were 141 µM and 45.7 µM, respectively. The inhibition result in experiment [5] and in experiment [6] was “inactive” throughout.
For the compound `Oc1ccc(/C=N\NC(=S)NC2CCCCC2)c(O)c1`, the IC50 in experiment [1] is 56.6 µM; in [2] it was 44.6 µM; in [3], 27.7 µM; in experiment [4] it was 105 µM.
As to `S=C(N/N=C\c1ccc2c(c1)OCO2)NC1CCCCC1`, the IC50 in [3] stood at 61.6 µM. Moreover, the inhibition result in [9], in experiment [5] and in [6] was “inactive” each time.
Consider `COc1ccc(/C=N\NC(=S)NC2CCCCC2)cc1OC`, for which the figures for the IC50 in [3] and in experiment [4] were 47.9 µM and 99.2 µM, respectively. In addition, the inhibition entry in experiment [9] and in experiment [5] was “inactive” throughout.
Consider `S=C(N/N=C\c1cccs1)NC1CCCCC1`, for which the IC50 in experiment [1] turned out to be 58.6 µM; in experiment [2], 337 µM; in experiment [3], 30.4 µM; in experiment [4], 49.8 µM. The inhibition entry in experiment [7] and in [8] was “Active” each time.
`O=c1[nH]cc(F)c(=O)[nH]1` [FLUOROURACIL]: the IC50 in experiment [1] amounted to 77.3 µM; in experiment [3], 38.9 µM; in experiment [4] it was 34.5 µM.
As for `O=[N+]([O-])c1cccc(/C=N\NC(=S)NC2CCCCC2)c1`, the IC50 amounted to 84.8 µM in experiment [1] and 34.6 µM in [3]. Further, the inhibition result in experiment [5] and in [6] was “inactive” in each case.
With `Oc1ccc(/C=N\NC(=S)NC2CCCCC2)cc1`, the IC50 came out at 115 µM in experiment [1], 242 µM in experiment [2], 29.9 µM in experiment [3] and 50.4 µM in experiment [4]. Moreover, the inhibition entry in experiment [7] and in [8] was “Active” in each case.
As to `CC[C@@H](C(=O)[C@@H](C)[C@@H](O)[C@H](C)[C@@H]1O[C@@H]([C@@H](CC)C(=O)O)CC[C@@H]1C)[C@H]1O[C@]2(C=C[C@@H](O)[C@]3(CC[C@@](C)([C@H]4CC[C@](O)(CC)[C@H](C)O4)O3)O2)[C@H](C)C[C@@H]1C` [SALINOMYCIN], the Activity in experiment [10] turned out to be 0.6%; in experiment [11], 30%.
Consider `COc1cccc(/C=N\NC(=S)NC2CCCCC2)c1`, for which the IC50 in [1] was 88.9 µM; in experiment [2], 46.7 µM; in experiment [3] it was 30.9 µM; in experiment [4] it was 49.9 µM. Besides, in experiment [7] (SK-BR-3, 72 h), the inhibition at 30 µM was determined as 50%. In addition, the Activity stood at 0.7% in [10] and 9.5% in experiment [11]. Besides, the inhibition entry in [8] was “Active”. In addition, the inhibition at 25 µM in experiment [12] came to 46.7%; in experiment [13] it was 31.4%; in experiment [14], 32.4%; in [15] it was 45.6%; in [16], 32.3%; in [17] it was 15.9%.
`S=C(N/N=C\c1ccc(Cl)cc1)NC1CCCCC1`: the IC50 in [1] came out at 38.3 µM; in experiment [2], 41.6 µM; in experiment [3], 32.2 µM; in [4], 91.4 µM.
`O=[N+]([O-])c1ccc(/C=N\NC(=S)NC2CCCCC2)cc1`: in experiment [3], the IC50 turned out to be 41 µM. Also, the inhibition result in experiment [9], in experiment [5] and in experiment [6] was “inactive” throughout.
Consider `CCOc1ccc(/C=N\NC(=S)NC2CCCCC2)cc1`, for which the IC50 in experiment [1] stood at 68.2 µM; in experiment [2] it was 252 µM; in experiment [3], 29.9 µM; in [4], 166 µM. Besides, the inhibition result in experiment [7] and in experiment [8] was “Active” throughout. For the same compound, the results for the Activity in experiment [10] and in experiment [11] were 0.7% and 11.1%, respectively.
